These results are taken from patent EP0415103A1, “2,3-Dihydro-1-(pyridinylamino)-indoles, a process for their preparation and their use as medicaments” (HOECHST-ROUSSEL PHARMACEUTICALS INCORPORATED, priority 1989, dated 1991).

The test system of assay [1] is phenyl-para-quinone induced writhing. As to the kind of experiment: phenyl-para-quinone writhing assay (analgesia). The format is in vivo, mice. The settings on record: for % Inhibition of Writhing: 20 mg/kg s.c., mice.
The test system of assay [2] is Scopolamine Induced Memory Deficit. In words: Dark Avoidance Assay (reversal of scopolamine-induced memory deficit). The format is in vivo. The settings on record: mice, retest after 24 hours. As for the experimental part:
In this assay, mice are tested for their ability to remember an unpleasant stimulus for a period of 24 hours. A mouse is placed in a chamber that contains a dark compartment; a strong incandescent light drives it to the dark compartment, where an electric shock is administered through metal plates on the floor. The animal is removed from the testing apparatus and tested again, 24 hours later, for the ability to remember the electric shock. If scopolamine, an anticholinergic that is known to cause memory impairment, is administered before an animal's initial exposure to the test chambers, the animal re-enters the dark compartment shortly after being placed in the test chamber 24 hours later. The effect of scopolamine is blocked by an active test compound, resulting in a greater interval before re-entry into the dark compartment. The results for an active compound are expressed as the percent of a group of animals in which the effect of scopolamine is blocked, as manifested by an increased interval between being placed in the test chamber and re-entering the dark compartment. The activity of some of the compounds of the instant invention in the assay are given below in Table 2.

Assay [3] deals with extensor tonus. As to the kind of experiment: supramaximal electroshock (SES) assay (anticonvulsant activity). The format is in vivo, male mouse. The settings on record: 30 minute pretreat, normalized relative to vehicle control. The protocol:
The compounds of the invention are also useful as anticonvulsants due to their anticonvulsant activity in mammals. Anticonvulsant activity is measured in the male mouse using the supramaximal electroshock (SES) assay described in Arch. Int. Pharmacodyn. 92:97-107, 1952. In this procedure, groups of male mice are used. Drugs are prepared using distilled water and, if insoluble, a surfactant is added. Control animals receive vehicle. Drugs are routinely administered interperitoneally (i.p.). The dosage volume is 10 ml/kg. A primary screen is given a 30 minute pretreat. The animals' eyes are placed across the output terminals of an A.C. shocker that delivers 206 volts rms for 300 msec. Electrode paste coats the animals' eyes at the point of contact with the terminals. […] Protection is expressed as normalized percent inhibition relative to vehicle control.
In general terms: The maximal electroshock test induces tonic seizures with an electrical stimulus.

For the compound `CC(=O)Oc1ccccc1C(=O)O` [Aspirin, reference compound], in assay [1] (Mus musculus, sc, read-out: ED₅₀ (subcutaneous dose at which 50% of the phenyl-para-quinone induced writhing is inhibited)), the ED50 was found to be 32.8 mg/kg.

With `Nc1c2c(nc3ccccc13)CCCC2` [Tacrine], the “% of Animals With Scopolamine Induced Memory Deficit Reversal” value in assay [2] (0.63 mg/kg s.c) was 13%.

Consider `CC[C@@H]1C(=O)OC[C@@H]1Cc1cncn1C` [Pilocarpine], for which, in assay [2] (1.25 mg/kg s.c), the “% of Animals With Scopolamine Induced Memory Deficit Reversal” value turned out to be 19%.

With `c1ccc2c(c1)CCN2Nc1ccncc1` [2,3-Dihydro-N-(4-pyridinyl)-1H-indol-1-amine], in assay [1], the “% Inhibition of Writhing” value was 74% at 20 mg/kg. Also, the “% of Animals With Scopolamine Induced Memory Deficit Reversal” value in assay [2] (0.3 mg/kg s.c.) is listed as 53%. The “% Inhibition” value in assay [3] (15 mg/kg i.p.) is given as -40% at 15 mg/kg i.p.

Regarding `CCC1(c2ccccc2)C(=O)NC(=O)NC1=O` [Phenobarbital, reference compound], the “% Inhibition” value in assay [3] (8.4 mg/kg i.p.) is -50% at 8.4 mg/kg.

`CCCN(c1ccncc1)N1CCc2ccccc21.O=C(O)C(=O)O` [2,3-Dihydro-N-propyl-N-(4-pyridinyl)-1H-indol-1-amine oxalate]: the “% Inhibition of Writhing” value in assay [1] worked out at 100% at 20 mg/kg. Besides, the “% Inhibition” value in assay [3] (10 mg/kg i.p.) is -40% at 10 mg/kg i.p.
